Consider one substance from article PMC8924211 (Nature Communications, 2022).

Where a chain is given by its changes, count along the chain named.

Common to all, as to test: Calcium assay, HEK293/Gα16 cells, GAL2R mutants
Common to all, as to format: cell-based

Experiment [1] addresses T1, GAL2R mutants (Homo sapiens, UniProt O43603, L169A).
T1 construct: expressed in transfected cells; host or cells: HEK293
T1 sequence (O43603 1-387 L169A): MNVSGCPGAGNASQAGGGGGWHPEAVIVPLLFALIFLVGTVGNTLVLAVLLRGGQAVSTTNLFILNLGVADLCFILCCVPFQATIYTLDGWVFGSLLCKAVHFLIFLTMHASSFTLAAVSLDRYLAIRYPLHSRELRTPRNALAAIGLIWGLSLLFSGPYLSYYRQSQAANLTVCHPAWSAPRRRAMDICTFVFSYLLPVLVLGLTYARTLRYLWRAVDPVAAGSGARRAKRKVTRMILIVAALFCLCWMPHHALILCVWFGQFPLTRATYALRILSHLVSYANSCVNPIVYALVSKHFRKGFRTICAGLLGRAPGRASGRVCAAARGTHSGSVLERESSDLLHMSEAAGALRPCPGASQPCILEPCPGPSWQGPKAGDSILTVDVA
The settings on record: GAL2R L169ECL2A.

For experiment [2], the target named is T2, GAL2R mutants (Homo sapiens, UniProt O43603, Q82A).
T2 construct: expressed in transfected cells; host or cells: HEK293
T2 sequence (O43603 1-387 Q82A): T1 sequence (O43603 1-387 L169A) with Q82A, A169L
The settings on record: GAL2R Q822.61A.

In experiment [3] the target is T3, GAL2R mutants (Homo sapiens, UniProt O43603, I256A).
T3 construct: expressed in transfected cells; host or cells: HEK293
T3 sequence (O43603 1-387 I256A): T1 sequence (O43603 1-387 L169A) with A169L, I256A
The note with it: GAL2R I2566.55A.

In experiment [4] the target is T4, GAL2R mutants (Homo sapiens, UniProt O43603, I85A).
T4 construct: expressed in transfected cells; host or cells: HEK293
T4 sequence (O43603 1-387 I85A): T1 sequence (O43603 1-387 L169A) with I85A, A169L
The settings on record: GAL2R I852.64A.

For experiment [5], the target named is T5, GAL2R mutants (Homo sapiens, UniProt O43603, Y86A).
T5 construct: expressed in transfected cells; host or cells: HEK293
T5 sequence (O43603 1-387 Y86A): T1 sequence (O43603 1-387 L169A) with Y86A, A169L
The settings on record: GAL2R Y862.65A.

[6] abbreviates: response of 100 μM spexin compared to WT, mean ± S.E.M.
[7] abbreviates: response of 100 μM spexin compared to WT.

On to spexin, for which the Emax is 94.58±11.1% on GAL2R mutants [1] (setting [6]); 77.1819% at GAL2R mutants [1] (spexin, replicate 1); 91.205% at GAL2R mutants [1] (spexin, replicate 2); 115.35% at GAL2R mutants [1] (spexin, replicate 3); “NR (NR, no response, refers to response < 10% compared to WT receptor (spexin at 100 μM))” at GAL2R mutants [2] (setting [7]); “no response” on GAL2R mutants [2] (spexin, replicate 1). In addition, the maximal response (Emax) result is on record as “no response” at GAL2R mutants [2] (spexin, replicate 2); “no response” at GAL2R mutants [2] (spexin, replicate 3); 67.24±0.5% on GAL2R mutants [3] (setting [6]); 66.4324% at GAL2R mutants [3] (spexin, replicate 1); 67.278% at GAL2R mutants [3] (spexin, replicate 2); 68.0243% on GAL2R mutants [3] (spexin, replicate 3). The Emax result on GAL2R mutants [4] (setting [7]) is “NR (NR, no response, refers to response < 10% compared to WT receptor (spexin at 100 μM))”; on GAL2R mutants [4] (spexin, replicate 1), “no response”; on GAL2R mutants [4] (spexin, replicate 2) it was “no response”; at GAL2R mutants [4] (spexin, replicate 3), “no response”; at GAL2R mutants [5] (setting [7]) it was “NR (NR, no response, refers to response < 10% compared to WT receptor (spexin at 100 μM))”; on GAL2R mutants [5] (spexin, replicate 1) it was “no response”. The Emax entry on GAL2R mutants [5] (spexin, replicate 2) is “no response”; at GAL2R mutants [5] (spexin, replicate 3) it was “no response”. Moreover, the EC50 at GAL2R mutants [1] (spexin, replicate 1) was 7.173 µM; at GAL2R mutants [1] (spexin, replicate 2) it was 5.137 µM; on GAL2R mutants [3] (spexin, replicate 2), 0.4379 µM; at GAL2R mutants [3] (spexin, replicate 3) it was 0.9243 µM.

For orientation: Emax means the size of the effect at its maximum, as opposed to the concentration needed. A word on the EC50: it is the concentration needed to bring the measured effect to its halfway point.
